# Experimental data taken from patent US9283281B2, “Preparation of triple responsive nanogel system and its application” (University of South Carolina, priority 2013, dated 2016).
# System: UMSCC22A cells
# Experiment: Cell death after PDT by propidium iodide fluorometry
# Format: cell-based
# Settings: after irradiation; after 5 h of PDT
# Experimental: After exposure to red light, cells were incubated for various periods of time prior to analysis.
# Cell death was assessed by propidium iodide (PI) fluorometry using a multi-well fluorescence plate reader, as previously described. Human head and neck cancer cells (UMSCC22A) were plated on 96-well plates (15,000 cells/well) in Dulbecco's Modified Eagle's Medium (DMEM) (Gibco) supplemented with 10% fetal bovine serum (FBS) and penicillin/streptomycin (complete culture medium) in a humidified 37° C. incubator at 5% CO2/95% air. […] Before exposure to light, cells were changed to fresh medium supplemented with PI (30 μM) and Insulin-Transferrin-Selenium-X (ITX) reagent [insulin (10 μg/ml), transferrin (5.5 μg/m), selenium (6.7 ng/ml), ethanolamine (0.2 mg/ml)] (Gibco) but omitting FBS. PI fluorescence was measured at frequent intervals using 530 nm excitation (25 nm band pass) and 620 nm emission (40 nm band pass) filters. Between measurements, microtiter plates were placed in a 37° C. incubator. At the end of the experiment, digitonin (200 μM) was added to each well to permeabilize all cells and label all nuclei with PI. Cell viability determined by PI fluorometry is essentially the same as cell viability determined by trypan blue exclusion.
substance,measurement,value
Silicon phthalocyanine [Pc 4],cell killing,35%
